# Experimental data as given in patent US20250186652A1, “ARTICLES AND METHODS FOR IMPROVED TISSUE HEALING” (UNIVERSITY OF MISSISSIPPI MEDICAL CENTER, priority 2022, published 2025).
# B1: PDGF-BB: platelet-derived growth factor-BB, controlled release from fibrin-based delivery system (protein, UniProt P01127 82-190, looked up)
# Platelet-derived growth …: SLGSLTIAEPAMIAECKTRTEVFEISRRLIDRTNANFLVWPPCVEVQRCSGCCNNRNVQCRPTQVQLRPVQVRKIEIVRKKPIFKKATVTLEDHLACKCETVAAARPVT
# Legend:
# human tenocytes = conditions: in vitro; Wong, Tang et al. 2003; cited from earlier work
# Hif-1 alpha = assay: Inhibition of Hif-1 alpha leading to CTGF in vitro
# Source text: Fructose-1,6-bisphosphate (FBP) is an intermediate in glycolysis which, if provided to cells could allow them to bypass two ATP-requiring steps for energy production. […] M6P is known to isomerize to fructose-6-phosphate (F6P), an intermediate of glycolysis in the step prior to FBP (FIG. 1). Therefore, one might hypothesize that treatment with M6P may decrease production of CTGF by decreasing the need for substrate-level phosphorylation, which would be vital in hypoxic conditions. In this regard, the present inventors have shown that […] produces the inhibition of Hif-1 alpha leading to CTGF in vitro. Alternatively, latent TGF-β is activated through its binding with the M6P/IGFII receptor (Ghahary, Tredget et al. 1999). Competitive inhibition of the activation of TGF-β through treatment with M6P is considered another method by which M6P may inhibit fibrosis. It is thought that M6P may have more potential for reducing fibrosis than FBP because its mechanism of action is not dependent upon a hypoxic environment.
# CTGF = conditions: cells under hypoxic conditions; Haung, Adah et al. 2009; cited from earlier work
# [1] = system: human dermal fibroblast and keratinocyte; conditions: Clavel, Barragan-Montero et al. 2005; cited from earlier work
# MRC-5 fibroblast cells = assay: In vitro fibroblast proliferation/viability with M6P and TGF-β1; type: cell-based
# Source text: FIGS. 8A-B show images illustrating that M6P competes with TGFβ. (A) Use of MRC-5 fibroblast cells in an in vitro assessment of concentration effects of TGFβ and M6P as well as effectiveness of M6P to block the proliferative effects of TGFβ. (B) Schematic showing potential mechanism of M6P and TGFβ competing for the same M6P receptor that leads to increase gene regulation.
# digital flexor tendons = conditions: three weeks after operation; vs operated controls; cited from earlier work
molecule,measurement,setting,value
C[C@@H]1C[C@H]2[C@@H]3CCC4=CC(=O)C=C[C@]4(C)[C@@]3(F)[C@@H](O)C[C@]2(C)[C@@]1(O)C(=O)CO [dexamethasone],"tenocyte viability, mitotic activity and collagen production",human tenocytes,negative effects
"O=C(CO)[C@@H](O)[C@H](O)[C@H](O)COP(=O)(O)O [F6P, fructose 6 phosphate]",inhibition of Hif-1 alpha leading to CTGF,Hif-1 alpha,inhibition
"O=C(COP(=O)(O)O)[C@@H](O)[C@H](O)[C@H](O)COP(=O)(O)O [FBP, Fructose-1,6-bisphosphate]",production of CTGF,CTGF,decreases production of CTGF to near control conditions
"O=C[C@@H](O)[C@@H](O)[C@H](O)[C@H](O)COP(=O)(O)O [M6P, mannose 6 phosphate]",inhibition of proliferation,[1],potent inhibitor
same,cell proliferation of fibroblast cells,MRC-5 fibroblast cells; 0.05 μM M6P,enhance cell proliferation
same,toxic effect on fibroblast cells,MRC-5 fibroblast cells; 0.05 μM M6P,without evidence of a toxic effect
same,TGF-β1-induced proliferation,MRC-5 fibroblast cells; M6P added along with TGF-β1,increased proliferation was eliminated
TGF-β1: TGF-β1 growth factor added to fibroblast cells [reference compound],cell proliferation,MRC-5 fibroblast cells; TGF-β1 added at 8 pM,enhanced cell proliferation
same,toxicity to the cells,MRC-5 fibroblast cells; TGF-β1 at the higher doses,toxic
B1,range of motion (ROM),digital flexor tendons,significantly greater ROM
